One series relates to tumors. Put plainly: Antitumor activity (general statement). The following applies: no test described.
In a further series the test system is Streptococcus agalactiae. Put plainly: Agar dilution MIC. Type of series: cell-based. Conditions: A No. 22567, 37° C., 18 hours. The method, then: (§1) The following methodology was used to determine the minimum inhibitory concentration (hereinafter referred to as the "MIC") of the compounds of this invention. The test organisms were grown in 20 mL of Antibiotic Assay Broth (Difco) by inoculating the broth (in tubes) with a loopful of the organism from a BHI (Difco) agar slant. The inoculated tubes were incubated at 37° C. for 18 to 24 hours. These cultures were assumed to contain 10^9 colony forming units (CFU) per mL. The cultures were diluted 1:100 to give a final inoculum level of 10^7 CFU per mL; dilutions were made with Yeast Beef Broth (Difco). The antibiotics Hayumicin A and Hayumicin B of the present invention were dissolved in suitable diluents at a concentration of 1000 μg/mL. Two-fold dilutions were made in Yeast Beef Broth (Difco), resulting in a range from 1000 μg/mL to 0.5 μg/mL. A 1.5 mL portion of each dilution was placed into individual petri dishes to which 13.5 mL of K-10 agar was added. The composition of K-10 agar is:
(§2) The final drug concentration in agar of Hayumicin A or Hayumicin B ranged from […] to 0.05 μg/mL. Organism growth control plates containing agar only were prepared and inoculated before and after the test plates. The organisms were applied to the surface of each plate so that each contained a final inoculum of 10^5 CFU. The plates were incubated at 37° C. for 18 hours and the MICs determined. The MIC is the lowest concentration of compound inhibiting growth of the organism.

The subject of the next series is Streptococcus pneumoniae. Put plainly: Agar dilution MIC. It is filed as cell-based. The following applies: A No. 9585, 37° C., 18 hours. The method, then:
as §1, §2
In general terms: Agar dilution tests growth on a series of plates holding different concentrations.

The test system of another series is Pseudomanas aeruginosa. Kind of series: Agar dilution MIC. Type of series: cell-based. The following applies: A No. 21508, 37° C., 18 hours. On the procedure:
as §1, §2

In the next series the test system is Streptococcus pyogenes. Kind of series: Agar dilution MIC. Type of series: cell-based. Conditions: A No. 9604, 37° C., 18 hours. On the procedure: as §1, §2
A further series concerns Staphylococcus aureus. Kind of series: Agar dilution MIC. Type of series: cell-based. The following applies: 18 h. The method, then: as §1, §2
The test system of another series is Bacillus subtilis. Put plainly: Agar dilution MIC. Type of series: cell-based. Conditions: A No. 9506A, 37° C., 18 hours. The method, then:
as §1, §2

The test system of the next series is Proteus mirabilis. Put plainly: Agar dilution MIC. The following applies: A No. 9900, 37° C., 18 hours. Type of series: cell-based. The method, then: as §1, §2
A further series concerns Klebsiella pneumoniae. Put plainly: Agar dilution MIC. Type of series: cell-based. Conditions: A No. 9664, 37° C., 18 hours. On the procedure:
as §1, §2

A further series deals with Escherichia coli. Put plainly: Agar dilution MIC. It is filed as cell-based. Conditions: 18 h. The method, then: as §1, §2
Another series concerns Klebsiella oxytoca. Put plainly: Agar dilution MIC. Type of series: cell-based. Conditions: A No. 203454, 37° C., 18 hours. On the procedure:
as §1, §2

In a further series the test system is Micrococcus luteus. Kind of series: Agar dilution MIC. It is filed as cell-based. The following applies: A No. 9852, 37° C., 18 hours. The method, then: as §1, §2
Series [1] concerns bacteria (especially gram positive bacteria). Kind of series: Antibiotic activity (general statement). Type of series: cell-based. The following applies: inhibiting the growth of bacteria.

In brackets after ≈: the same amount, converted by molar mass.

As usually defined, the MIC is the least concentration at which growth counts as inhibited. The low end stands for greater potency, the high end for weaker potency. Take `CO[C@@H]1[C@@H](O)[C@@H](O[C@H]2[C@H](Oc3cccc4c(=O)c5c(O)c(=O)c6ccc(C)c7c(=O)oc(c-5c67)c34)O[C@H](C)[C@H](O)[C@@H]2O)O[C@H](C)[C@@H]1OC` [Hayumicin A, 10-[[6-deoxy-2-O-(6-deoxy-3,4-di-O-methyl-α-D-galactopyranosyl)-β-D -galactopyranosyl]oxy]-5-hydroxy-1-methyl-4H -benzo[h]naphtho[8,1,2-cde][1]benzopyran-4,6,12-trione]: the antitumor activity entry in the series on tumors was “antitumor activity”. The MIC in the series on Streptococcus agalactiae is 8 µg/mL (≈ 12 µM); with Streptococcus pneumoniae it was 16 µg/mL (≈ 24 µM); against Pseudomanas aeruginosa it was > 128 µg/mL; against Streptococcus pyogenes, 8 µg/mL (≈ 12 µM); against Staphylococcus aureus (A No. 9537, 37° C.), 64 µg/mL (≈ 96 µM); in the series with Staphylococcus aureus (A No. 9606, 37° C.), 128 µg/mL (≈ 192 µM). Also, the MIC in the series on Staphylococcus aureus (A No. 24227, 37° C.) is 128 µg/mL (≈ 192 µM); in the series with Bacillus subtilis, 32 µg/mL (≈ 48 µM); against Proteus mirabilis it was > 128 µg/mL; against Klebsiella pneumoniae, > 128 µg/mL; against Escherichia coli (A No. 20697, 37° C.), > 128 µg/mL; against Escherichia coli (A No. 22292, 37° C.), 16 µg/mL (≈ 24 µM). The MIC with Escherichia coli (A No. 28290, 37° C.) is > 128 µg/mL; in the series with Klebsiella oxytoca, > 128 µg/mL; against Micrococcus luteus it was 1 µg/mL (≈ 1.5 µM). The antibiotic activity entry in [1] is on record as “possess antibiotic activity”. Also, the solubility in chloroform entry in “Solubility” is “slightly soluble”. The solubility in dimethylsulfoxide entry in “Solubility” is on record as “readily soluble”. For the same compound, the solubility in methanol entry in the series “Solubility” is “slightly soluble”. Besides, in the series “Solubility”, the solubility in n-hexane entry is “insoluble”. In the series “Solubility”, the solubility in pyridine result is “readily soluble”. For the same compound, the solubility in water entry in the series “Solubility” is “insoluble”.
For `CO[C@@H]1[C@@H](O)[C@@H](O[C@H]2[C@H](Oc3cccc4c(=O)c5c(N)c(=O)c6ccc(C)c7c(=O)oc(c-5c67)c34)O[C@H](C)[C@H](O)[C@@H]2O)O[C@H](C)[C@@H]1OC` [Hayumicin B, 5-amino-10-[[6-deoxy-2-O -(6-deoxy-3,4-di-O-methyl-α-D-galactopyranosyl)-β-D -galactopyranosyl]oxy]-1-methyl-4H -benzo[h]naphtho[8,1,2-cde][1]benzopyran-4,6,12-trione], the antitumor activity result in the series with tumors was “antitumor activity”. Further, the MIC against Streptococcus agalactiae was 8 µg/mL (≈ 12 µM); in the series with Streptococcus pneumoniae, 8 µg/mL (≈ 12 µM); against Pseudomanas aeruginosa, > 128 µg/mL; against Streptococcus pyogenes it was 8 µg/mL (≈ 12 µM); against Staphylococcus aureus (A No. 9537, 37° C.), 64 µg/mL (≈ 96.1 µM); against Staphylococcus aureus (A No. 9606, 37° C.) it was 128 µg/mL (≈ 192 µM). The MIC against Staphylococcus aureus (A No. 24227, 37° C.) is 128 µg/mL (≈ 192 µM); in the series with Bacillus subtilis it was 4 µg/mL (≈ 6.01 µM); against Proteus mirabilis, > 128 µg/mL; in the series with Klebsiella pneumoniae it was > 128 µg/mL; in the series on Escherichia coli (A No. 20697, 37° C.), > 128 µg/mL; against Escherichia coli (A No. 22292, 37° C.), 128 µg/mL (≈ 192 µM). Besides, the MIC in the series on Escherichia coli (A No. 28290, 37° C.) was > 128 µg/mL; against Klebsiella oxytoca, > 128 µg/mL; with Micrococcus luteus, 1 µg/mL (≈ 1.5 µM). The antibiotic activity entry in series [1] is listed as “possess antibiotic activity”. For the same compound, in the series “Solubility”, the solubility in chloroform result is given as “slightly soluble”. Moreover, the solubility in dimethylsulfoxide entry in “Solubility” is reported as “readily soluble”. The solubility in methanol entry in the series “Solubility” is reported as “slightly soluble”. Also, the solubility in n-hexane result in “Solubility” was “insoluble”. Also, the solubility in pyridine result in “Solubility” is on record as “readily soluble”. The solubility in water entry in the series “Solubility” was “insoluble”.
Consider `CO[C@@H]1[C@H](O)[C@@H](O)[C@@H](O[C@H]2[C@H](Oc3cccc4c(=O)c5c(N)c(=O)c6ccc(C)c7c(=O)oc(c-5c67)c34)O[C@H](C)[C@H](O)[C@@H]2O)O[C@@H]1C` [Hayumicin C1, 5-amino-10-[[6-deoxy-2-O -(6-deoxy-4-O-methyl-α-D-galactopyranosyl)-β-D -galactopyranosyl]oxy]-1-methyl-4H -benzo[h]naphtho[8,1,2-cde][1]benzopyran-4,6,12-trione], for which the antitumor activity entry in the series with tumors is “antitumor activity”. For the same compound, the antibiotic activity entry in series [1] is on record as “possess antibiotic activity”. In the series “Solubility”, the solubility in chloroform entry is recorded as “slightly soluble”, the solubility in dimethylsulfoxide result is recorded as “soluble”, the solubility in ether result was “practically insoluble” and the solubility in methanol entry is recorded as “slightly soluble”. In the series “Solubility”, the solubility in n-hexane result is “practically insoluble”, the solubility in pyridine entry was “soluble” and the solubility in water entry is “practically insoluble”.
`CO[C@H]1[C@@H](O)[C@@H](C)O[C@H](O[C@H]2[C@H](Oc3cccc4c(=O)c5c(N)c(=O)c6ccc(C)c7c(=O)oc(c-5c67)c34)O[C@H](C)[C@H](O)[C@@H]2O)[C@@H]1O` [Hayumicin C2, B-amino-10-[[6-deoxy-2-O -(6-deoxy-3-O-methyl-α-D-galactopyranosyl)-β-D -galactopyranosyl]oxy]-1-methyl-4H -benzo[h]naphtho[8,1,2-cde][1]benzopyran-4,6,12-trione]: in the series on tumors, the antitumor activity entry is listed as “antitumor activity”. Also, the antibiotic activity result in series [1] is listed as “possess antibiotic activity”. Moreover, in “Solubility”, the solubility in chloroform result is recorded as “slightly soluble”, the solubility in dimethylsulfoxide result was “soluble”, the solubility in ether entry is on record as “practically insoluble” and the solubility in methanol result was “slightly soluble”. In addition, in “Solubility”, the solubility in n-hexane result is reported as “practically insoluble”, the solubility in pyridine entry is listed as “soluble” and the solubility in water entry is given as “practically insoluble”.
On to `Cc1ccc2c(=O)c(N)c3c(=O)c4cccc(O[C@@H]5O[C@H](C)[C@H](O)[C@H](O)[C@H]5O[C@H]5O[C@H](C)[C@H](O)[C@H](O)[C@H]5O)c4c4oc(=O)c1c2c4-3` [Hayumicin D, 5-amino-10-[[6-deoxy-2-O -(6-deoxy-α-D-galactopyranosyl)-β-D -galactopyranosyl]oxy]-1-methyl-4H -benzo[h]naphtho[8,1,2-cde][1]benzopyran-4,6,12-trione], for which the antitumor activity entry in the series on tumors is “antitumor activity”. Moreover, the antibiotic activity result in series [1] is on record as “possess antibiotic activity”. Further, in “Solubility”, the solubility in chloroform entry is on record as “slightly soluble”, the solubility in dimethylsulfoxide entry was “soluble”, the solubility in ether result is “practically insoluble” and the solubility in methanol entry was “slightly soluble”. Further, in “Solubility”, the solubility in n-hexane entry is reported as “practically insoluble”, the solubility in pyridine entry is on record as “soluble” and the solubility in water result is “practically insoluble”.

These data come from patent US5639735A, “Antitumor antibiotic compounds: hayumicins and analogs thereof” (Bristol-Myers Squibb Company, priority 1994, dated 1997).
